Assay [1] relates to SB.msgc-1. Kind of assay: area under the dose-response curve of % viability (trapezoidal, 11 doses) (% viability x log10 concentration); higher = less cytotoxic. To be noted: SB.msgc-1 (sporadic gastric cancer). The method, boiled down: (§1)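 A pintool delivered 23 nL of compound in DMSO to 1536-well plates holding 500 hereditary or sporadic patient-derived gastric cancer cells in 5 μL medium per well, at 11 concentrations in threefold steps. Following 48 h of exposure, cells were treated with CellTiter-Glo for 30 min at room temperature, and plates were read for luminescence on a ViewLux. The reported measure is viability normalised to DMSO, either at the top concentration or as trapezoidal area under the curve.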

Assay [2] concerns SB.mhdgc-1. The assay is described as above. The settings on record: SB.mhdgc-1 (hereditary c.1380delA CDH1 gastric cancer). The method, boiled down:
as §1

Assay [3] concerns SB.msgc-1. Kind of assay: viability at highest tested concentration (MAXR) relative to DMSO; higher = less cytotoxic. To be noted: SB.msgc-1 (sporadic gastric cancer). The method, boiled down:
as §1

In assay [4] the test system is SB.mhdgc-1. The description is as above. To be noted: SB.mhdgc-1 (hereditary c.1380delA CDH1 gastric cancer). The method, boiled down:
as §1

The structures appear in SMILES notation.

By viability is commonly meant a read-out of living cells in per cent, often relative to untreated cells. Take `CO[C@@H]1[C@@H](O)[C@H](O)[C@@H](n2c3c(Cl)cccc3c3c4c(c5c6cccc(Cl)c6[nH]c5c32)C(=O)NC4=O)O[C@H]1CO` [Rebeccamycin] (top concentration 46.0829 µM): the “area under the dose-response curve” value was 390 in the assay on SB.msgc-1 [1] and 346 in the assay with SB.mhdgc-1 [2]. Further, the viability was found to be 24.2% in the assay with SB.msgc-1 [3] and 13.6% in the assay on SB.mhdgc-1 [4].
On to `Clc2cccc(Cl)c2\N=C1/NCCN1` [Clonidine] (top concentration 46.0829 µM), for which the “area under the dose-response curve” value was found to be 537 in the assay on SB.msgc-1 [1] and 591 with SB.mhdgc-1 [2]. For the same compound, the viability with SB.msgc-1 [3] is 130%; with SB.mhdgc-1 [4] it was 92.5%.
The like results for `CC(C)c1ccc2c(c1)c(SC(C)(C)C)c(CC(C)(C)C(=O)[O-])n2Cc1ccc(Cl)cc1` [MK-886] (top concentration 46.0829 µM) were, in that order, 331, 473, 19% and 25.9%.
For `C[C@@H](N)C1CC[C@@H](CC1)C(=O)NC2=CC=NC=C2` (some centres not stated) (top concentration 46.0829 µM), in that order: 577, 494, 108% and 83.4%.
As for `NC1(C(=O)N[C@@H](CCO)c2ccc(Cl)cc2)CCN(c2ncnc3[nH]ccc23)CC1` [AZD-5363] (top concentration 46.0829 µM), the “area under the dose-response curve” value in the assay with SB.msgc-1 [1] was determined as 451; in the assay on SB.mhdgc-1 [2], 376. Besides, the viability in the assay with SB.msgc-1 [3] was found to be 62.4%; in the assay with SB.mhdgc-1 [4], 17%.
Take `O=C(O)CCCc1c[nH]c2ccccc12` [3-indolebutyric acid] (top concentration 46.0829 µM): the “area under the dose-response curve” value with SB.msgc-1 [1] stood at 539; with SB.mhdgc-1 [2], 544. The results for the viability with SB.msgc-1 [3] and with SB.mhdgc-1 [4] were 87.7% and 126%, respectively.
In the case of `COc1ccc2cc(-c3[nH]c(-c4ccc([S+](C)[O-])cc4)nc3-c3ccncc3)ccc2c1` (configuration not stated) [Tie-2 kinase inhibitor] (top concentration 46.0829 µM), the figures for the “area under the dose-response curve” value in the assay on SB.msgc-1 [1] and in the assay on SB.mhdgc-1 [2] were 485 and 520, respectively. The figures for the viability in the assay on SB.msgc-1 [3] and with SB.mhdgc-1 [4] were 49.6% and 35.6%, respectively.
Regarding `CN1CCN(CCCN2c3ccccc3Sc3ccc(C(F)(F)F)cc32)CC1` [Stelazine  trifluoperzine] (top concentration 46.0829 µM), the “area under the dose-response curve” value in the assay on SB.msgc-1 [1] is 490; in the assay on SB.mhdgc-1 [2] it was 404. Further, the viability in the assay with SB.msgc-1 [3] stood at 7.54%; in the assay with SB.mhdgc-1 [4], 4.15%.
As for `CC[C@H]1OC(=O)[C@H](C)[C@@H](O[C@H]2C[C@@](C)(OC)[C@@H](O)[C@H](C)O2)[C@H](C)[C@@H](O[C@@H]2O[C@H](C)C[C@H](N(C)C)[C@H]2O)[C@](C)(OC)C[C@@H](C)C(=O)[C@H](C)[C@@H](O)[C@]1(C)O` [Clarithromycin] (top concentration 46.0829 µM), the “area under the dose-response curve” value in the assay with SB.msgc-1 [1] is 433; in the assay on SB.mhdgc-1 [2], 386. Moreover, the viability in the assay on SB.msgc-1 [3] stood at 78.6%; in the assay on SB.mhdgc-1 [4] it was 26.2%.
As to `CCC(C)(Oc1ccc(C2(c3ccc(OC(C)(CC)C(=O)O)cc3)CCCCC2)cc1)C(=O)O` (configuration not stated) [Clinofibrate] (top concentration 46.0829 µM), the “area under the dose-response curve” value with SB.msgc-1 [1] came to 356; in the assay on SB.mhdgc-1 [2], 581. In addition, the viability in the assay on SB.msgc-1 [3] was 52.9%; in the assay on SB.mhdgc-1 [4] it was 106%.
For `COc1cc(N2CCN(C)CC2)ccc1Nc1nc(N)c(C(=O)c2c(Cl)cccc2Cl)s1` (top concentration 46.0829 µM), in that order: 478, 457, 53.8% and 35.6%.
The like results for `CC1=C(CC(=O)O)c2cc(F)ccc2/C1=C\c1ccc([S+](C)[O-])cc1` (configuration not stated) [Sulindac] (top concentration 46.0829 µM) were, in that order, 452, 472, 46.5% and 35.4%.
On to `C[C@@]12OC(=O)[C@@]1(NC(=O)[C@@H]2CCCl)[C@@H](O)[C@H]\3CCC\C=C3` [Marizomib] (top concentration 46.0829 µM), for which the figures for the “area under the dose-response curve” value in the assay on SB.msgc-1 [1] and in the assay with SB.mhdgc-1 [2] were 169 and 173, respectively. For the same compound, the viability in the assay on SB.msgc-1 [3] came to 3.33%; in the assay on SB.mhdgc-1 [4], 2.73%.
For `COc1cccc2c1C(=O)c1c(O)c3c(c(O)c1C2=O)C[C@@](O)(C(C)=O)C[C@@H]3O[C@H]1C[C@H](N)[C@H](O)[C@H](C)O1` [Daunorubicin] (top concentration 46.0829 µM), in that order: 419, 337, 59.5% and 19.5%.
For `CN1CCc2c(c3ccccc3n2Cc2ccc(C(=O)NO)cc2)C1` [Tubastatin A] (top concentration 46.0829 µM), in that order: 430, 384, 3.16% and 1.43%.
For `CC(=O)Nc1ccc(O)cc1` [Acetaminophen] (top concentration 46.0829 µM), in that order: 578, 492, 105% and 98.4%.
`C=C1C(=O)[C@@]23C(CC[C@@H]1[C@H]2O)[C@@]12CO[C@]3(O)[C@@H](O)[C@@H]1C(C)(C)CC[C@@H]2O` (some centres not stated) [Oridonin] (top concentration 46.0829 µM): the “area under the dose-response curve” value in the assay on SB.msgc-1 [1] stood at 475; in the assay on SB.mhdgc-1 [2], 444. The viability in the assay on SB.msgc-1 [3] came to 0.827%; with SB.mhdgc-1 [4], 10.3%.
In the case of `COc1cc2nccc(Oc3ccc(NC(=O)NC4CC4)c(Cl)c3)c2cc1C(N)=O` [Lenvatinib] (top concentration 46.0829 µM), the “area under the dose-response curve” value in the assay with SB.msgc-1 [1] was 474; in the assay with SB.mhdgc-1 [2], 399. Also, the viability in the assay with SB.msgc-1 [3] came to 48.1%; in the assay on SB.mhdgc-1 [4], 3.75%.
For `COc1ccc(-c2nc(N3CCOCC3)c3sc(CN(C)c4ncc(C(=O)NO)cn4)cc3n2)cn1` [CUDC-907] (top concentration 46.0829 µM), in that order: 167, 264, 9.58% and 19.5%.
As for `COc1ccccc1N1CCN(CC(O)COc2cccc3ccccc23)CC1` (configuration not stated) [Naftopidil] (top concentration 46.0829 µM), the “area under the dose-response curve” value with SB.msgc-1 [1] was found to be 572; with SB.mhdgc-1 [2], 536. The viability is 102% in the assay with SB.msgc-1 [3] and 87% in the assay with SB.mhdgc-1 [4].
The like results for `N/C(=N\C(=O)c1nc(Cl)c(N)nc1N)NCc1ccccc1` [Benzamil] (top concentration 46.0829 µM) were, in that order, 316, 405, 2.75% and 3.54%.
For `O=C(/C=C/C=C/c1ccc2c(c1)OCO2)N1CCCCC1` [Piperine] (top concentration 46.0829 µM), the results for the “area under the dose-response curve” value in the assay on SB.msgc-1 [1] and with SB.mhdgc-1 [2] were 537 and 535, respectively. The viability was 93% with SB.msgc-1 [3] and 131% with SB.mhdgc-1 [4].
Regarding `COC/1=C/[C@@H]2[C@@H]3CC4=C(C(=C(OC)C=C4)O)[C@]2(CCN3C)CC1=O` [Sinomenine] (top concentration 46.0829 µM), the “area under the dose-response curve” value in the assay with SB.msgc-1 [1] came out at 380; in the assay with SB.mhdgc-1 [2], 417. For the same compound, the viability came to 37.2% in the assay with SB.msgc-1 [3] and 24.9% in the assay with SB.mhdgc-1 [4].
